Experimental data reported in patent publication US20110118269A1, “FUSED PYRAZINE COMPOUNDS AS THEIR SALTS, USEFUL FOR THE TREATMENT OF DEGENERATIVE AND INFLAMMATORY DISEASES” (priority 2009, published 2011).

What was measured:
[1] = system: MMP13 expression in SW1353 cells; experiment: IL-1/OSM driven MMP13 expression in SW1353 cells (MMP13 ELISA); type: cell-based; conditions: Homo sapiens, IL-1β and OSM, 48 hr
Method: A 384 well format ELISA for measurement of MMP13 was developed. Various primary antibodies are tested, as well as various ELISA protocols. The following protocol is developed and validated to measure MMP13 levels in supernatant of cell cultures in 384 well plates.
Black maxisorb 384 well plates (Nunc 460518) are coated with 35 μL of a buffered solution containing 1.5 μg/mL anti-MMP13 antibody MAB511 (R&D systems). The antibody is diluted in carbonate-bicarbonate coating buffer (1.59 g Na2CO3 (Sigma S-7795) and 2.93 g NaHCO3 (Sigma S-5761) in 1 L MilliQ water, adjusted to pH 9.6). […] Substrate solution is prepared as follows: OmniMMP Fluorescent substrate (Biomol P-126) stock solution (2 mM in DMSO, stored at −20° C.) is diluted in 1× OmniMMP buffer (10× OmniMMP buffer: 500 mM Hepes (Sigma H4034), 100 mM CaCl2 (Sigma C5080), 0.5% Brij35 (Sigma 430 AG-6; adjusted to pH 7.0) to a final concentration of 0.01 mM. After an overnight incubation at 37° C., the active MMP13 in the sample has cleaved the substrate and released fluorescence. Readout is performed on the EnVision (Perkin Elmer) using 320 nm excitation/405 nm emission filters. […]

[2] = Tolerability of compounds in healthy mice (total body weight); type: in vivo, DBA/1J mice; conditions: 100 mg/kg/d, po, up to two weeks
Method: This protocol is designed to assess the tolerability of the compounds of the invention in healthy DBA/1J mice to determine the “therapeutic window” as defined by the dosing range between efficacious (mouse therapeutic Collagen-Induced Arthritis model) and toxic doses.
DBA/1J […] mice are used (CERJ (France)), the mice are 10-11 weeks old, and have a body weight of approx 20g.
Compounds are prepared for a dosing regimen of 100 mg/kg/d, po, free base, in a standard volume of injection of 0.1 mL/10 g of mice (equivalent to 10 mg/1 mL). For solution preparations, compounds are dissolved in 0.5% methyl-cellulose and 1% DMSO supplemented with 1 molar equivalent of methanesulfonic acid to ensure full dissolution, once a week.
Groups are randomized based on body weight and treated for up to two weeks. Each group contained 5 mice and received either test compound at 100 mg/kg, a comparison compound at 100 mg/kg/d (Compound A) or vehicle on a daily basis in a dosing volume of 200 μL per mouse.
Potential drug toxicity is monitored by observation every day and by recording body weights three times a week for weight loss. All statistical analyses are performed using Student's t test.
To assess the general tolerability of the treatments, the total body weight is followed throughout the course of the study.

TNF-α = experiment: Septic shock model (LPS induced TNF alpha release); type: in vivo, BALB/cJ female mice; conditions: 3, 10 and 20 mg/kg, po, once, 30 min before LPS
Method: Injection of lipopolysaccharide (LPS) induces a rapid release of soluble tumour necrosis factor (TNF-α) into the periphery. This model is used to analyse prospective blockers of TNF release in vivo.
Six BALB/cJ female mice (20 g) per group are treated at the intended dosing once, po. Thirty minutes later, LPS (15 mg/kg; E. coli serotype 0111:B4) is injected ip. Ninety minutes later, mice are euthanized and blood is collected. Circulating TNF alpha levels are determined using commercially available ELISA kits. Dexamethasone (5 mg/kg) is used as a reference anti-inflammatory compound. Compound 1 is efficacious at 3, 10 and 20 mg/kg, po.

IC50 [1]: 50 to 500 nM
Compound: CC(C)N1C[C@@H]2C[C@H]1CN2c1ccc(Nc2ncc(-c3coc(C(N)=O)c3)n3ncnc23)cc1 [Compound 1, 4-{8-[4-((1S,4S)-5-Isopropyl-2,5-diaza-bicyclo[2.2.1]hept-2-yl)-phenylamino]-[1,2,4]triazolo[1,5-a]pyrazin-5-yl}-furan-2-carboxamide]
weight of the animals compared to the vehicle [2]: no statistically significant difference
efficacy in septic shock model (circulating TNF alpha levels) (TNF-α): efficacious
